Experimental data: patent publication US9624233B2, “Compounds for treating pruritic conditions” (priority 2015, dated 2017)

Legend:
Details in all cases: 2.5E−05M
[1] = biological target: CB1 (h) (Homo sapiens, UniProt P21554); assay: Abuse liability binding screen, CB1 (h) (agonist radioligand)
Description: (§1) […]. The abuse liability screen included 44 targets (receptors, transporters, on gated-channel systems) related to the dopamine, norepinephrine, serotonin, gamma-aminobutyric acid (GABA), acetylcholine, N-methyl-D-aspartate (NMDA) cannabinoid and opioid neurotransmitter systems as recommended in FDA Draft guidance on Assessment of Abuse Potential of Drugs, January 2010.
(§2) Compound binding was calculated as a % inhibition of the binding of a radioactively labeled ligand specific for each target.
(§3) Results showing an inhibition or stimulation higher than 50% are considered to represent significant effects of the test compounds.

[2] = tested on: glycine (strychnine−insensitive); assay type: binding
Description: as §2

[3] = biological target: N neuronal α7 (h) (Homo sapiens, UniProt P36544); assay: Abuse liability binding screen, N neuronal α7 (h) (antagonist radioligand)
Description: as §1, §2, §3

[4] = biological target: T1, 5-HT2c (h) (Homo sapiens, UniProt P28335); assay: Abuse liability binding screen, 5-HT2c (h) (agonist radioligand)
T1 sequence (P28335 33-458): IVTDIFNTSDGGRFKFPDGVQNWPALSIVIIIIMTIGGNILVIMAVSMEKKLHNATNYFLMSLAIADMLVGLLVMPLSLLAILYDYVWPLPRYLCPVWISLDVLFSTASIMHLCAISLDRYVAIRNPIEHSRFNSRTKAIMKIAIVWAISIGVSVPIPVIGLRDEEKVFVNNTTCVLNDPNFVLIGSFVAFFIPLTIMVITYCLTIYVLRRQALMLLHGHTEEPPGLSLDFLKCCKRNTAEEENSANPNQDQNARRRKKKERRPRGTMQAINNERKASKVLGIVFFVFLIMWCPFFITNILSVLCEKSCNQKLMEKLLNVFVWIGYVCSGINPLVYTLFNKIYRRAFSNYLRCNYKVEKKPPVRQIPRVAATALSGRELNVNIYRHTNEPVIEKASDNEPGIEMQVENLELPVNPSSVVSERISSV
Description: as §2

[5] = biological target: T2, GR (h) (Homo sapiens, UniProt P04150); assay: Abuse liability binding screen, GR (h) (agonist radioligand)
T2 sequence (P04150 1-777): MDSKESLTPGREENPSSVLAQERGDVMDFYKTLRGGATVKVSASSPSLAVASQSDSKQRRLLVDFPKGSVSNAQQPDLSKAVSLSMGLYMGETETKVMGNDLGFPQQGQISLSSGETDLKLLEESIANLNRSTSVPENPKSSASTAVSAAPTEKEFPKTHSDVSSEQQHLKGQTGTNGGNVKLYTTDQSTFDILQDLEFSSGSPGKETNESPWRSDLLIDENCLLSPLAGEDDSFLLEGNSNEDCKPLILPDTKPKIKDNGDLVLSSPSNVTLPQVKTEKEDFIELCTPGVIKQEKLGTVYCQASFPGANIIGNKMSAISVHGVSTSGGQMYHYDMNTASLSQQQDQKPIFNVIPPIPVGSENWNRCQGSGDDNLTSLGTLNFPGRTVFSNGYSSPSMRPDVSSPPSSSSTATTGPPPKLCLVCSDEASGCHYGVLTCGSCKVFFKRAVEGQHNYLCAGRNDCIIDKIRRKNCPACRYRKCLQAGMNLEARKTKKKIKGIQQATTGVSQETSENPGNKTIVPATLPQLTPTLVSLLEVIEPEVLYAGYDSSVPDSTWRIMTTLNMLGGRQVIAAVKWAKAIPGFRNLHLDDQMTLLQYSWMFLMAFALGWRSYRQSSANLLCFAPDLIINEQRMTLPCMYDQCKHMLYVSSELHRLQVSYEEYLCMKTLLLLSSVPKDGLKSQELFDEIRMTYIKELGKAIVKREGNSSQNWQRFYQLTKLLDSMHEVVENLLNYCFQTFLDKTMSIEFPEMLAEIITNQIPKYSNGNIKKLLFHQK
Description: as §1, §2, §3

Sequence of CB1 (h) (P21554 whole entry): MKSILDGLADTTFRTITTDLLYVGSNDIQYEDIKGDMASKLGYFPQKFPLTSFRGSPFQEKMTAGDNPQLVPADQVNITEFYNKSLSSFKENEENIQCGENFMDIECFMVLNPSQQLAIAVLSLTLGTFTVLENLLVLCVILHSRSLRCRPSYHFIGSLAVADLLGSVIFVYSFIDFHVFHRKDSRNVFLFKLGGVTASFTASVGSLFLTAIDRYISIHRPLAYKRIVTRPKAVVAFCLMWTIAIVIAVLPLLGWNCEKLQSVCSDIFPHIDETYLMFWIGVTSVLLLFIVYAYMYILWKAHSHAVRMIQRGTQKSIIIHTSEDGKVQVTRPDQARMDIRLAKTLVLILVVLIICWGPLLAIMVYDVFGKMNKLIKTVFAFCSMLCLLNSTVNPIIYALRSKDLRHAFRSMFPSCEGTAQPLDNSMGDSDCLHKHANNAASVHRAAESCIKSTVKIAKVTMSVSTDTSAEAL
Sequence of N neuronal α7 (h) (P36544 23-502): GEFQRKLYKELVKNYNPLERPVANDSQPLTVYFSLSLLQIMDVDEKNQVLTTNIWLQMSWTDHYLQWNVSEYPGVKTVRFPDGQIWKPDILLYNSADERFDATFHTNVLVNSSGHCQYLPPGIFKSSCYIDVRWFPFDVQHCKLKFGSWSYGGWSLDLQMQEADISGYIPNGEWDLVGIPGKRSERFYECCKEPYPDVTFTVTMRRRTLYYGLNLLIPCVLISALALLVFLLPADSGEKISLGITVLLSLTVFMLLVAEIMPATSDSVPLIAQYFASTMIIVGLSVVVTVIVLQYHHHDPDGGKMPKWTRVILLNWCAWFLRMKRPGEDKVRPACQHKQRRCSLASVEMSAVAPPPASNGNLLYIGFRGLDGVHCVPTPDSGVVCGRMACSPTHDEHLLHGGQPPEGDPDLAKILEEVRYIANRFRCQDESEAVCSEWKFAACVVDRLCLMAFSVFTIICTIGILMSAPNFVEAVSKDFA

O=C(O)[C@H]1O[C@@H](Oc2ccc3c4c2O[C@H]2[C@@H](O)CC[C@@]5(O)[C@@H](C3)N(CC3CCC3)CC[C@]425)[C@H](O)[C@@H](O)[C@@H]1O [Compound M5, nalbuphine-3-beta-D-glucuronid]
% Inhibition of Control Specific Binding 1st [1]: −2.9%
% Inhibition of Control Specific Binding 2nd [1]: 12.9%
% Inhibition of Control Specific Binding Mean [1]: 5.0%
% Inhibition of Control Specific Binding 1st [2]: −7.7%
% Inhibition of Control Specific Binding 2nd [2]: −8.6%
% Inhibition of Control Specific Binding Mean [2]: −8.1%
% Inhibition of Control Specific Binding 1st [3]: −6.0%
% Inhibition of Control Specific Binding 2nd [3]: −0.4%
% Inhibition of Control Specific Binding Mean [3]: −3.2%
% Inhibition of Control Specific Binding 1st [4]: −7.9%
% Inhibition of Control Specific Binding 2nd [4]: −8.2%
% Inhibition of Control Specific Binding Mean [4]: −8.0%
% Inhibition of Control Specific Binding 1st [5]: 0.8%
% Inhibition of Control Specific Binding 2nd [5]: −5.4%
% Inhibition of Control Specific Binding Mean [5]: −2.3%
